Data reported in paper PMC4871277 (Biochemical pharmacology, 2015).
Read-outs that look alike come from different tables or passages of the source.

Tests used:
[1] = system: murine precision-cut lung slices (PCLS); format: cell-based
[2] = system: precision-cut lung slices (PCLS); assay: PCLS viability by lactate dehydrogenase; format: cell-based, murine; conditions: C646 concentrations above 25 μM
[3] = target: T1, HDAC8 (Homo sapiens, UniProt Q9BY41); assay: human recombinant HDAC inhibition assay; format: biochemical; conditions: read-out: Ki value HDAC8
T1 sequence (Q9BY41 1-377): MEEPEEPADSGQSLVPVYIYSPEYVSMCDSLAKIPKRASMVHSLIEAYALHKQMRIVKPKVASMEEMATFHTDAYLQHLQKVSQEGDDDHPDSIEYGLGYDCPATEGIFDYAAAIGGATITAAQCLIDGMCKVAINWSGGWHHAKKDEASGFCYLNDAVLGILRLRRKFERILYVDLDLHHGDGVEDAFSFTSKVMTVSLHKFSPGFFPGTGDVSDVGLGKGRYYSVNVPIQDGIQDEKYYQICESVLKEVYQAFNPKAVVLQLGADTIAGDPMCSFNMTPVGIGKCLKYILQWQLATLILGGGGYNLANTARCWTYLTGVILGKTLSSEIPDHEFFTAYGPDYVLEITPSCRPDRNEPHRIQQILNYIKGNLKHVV

[4] = system: histone H3 and H4 acetylation in RAW264.7 cells; assay: Histone acetylation by acetic anhydride-d6 labelling and LC-MS/MS; format: cell-based, murine
[5] = target: HDAC3 (Homo sapiens, UniProt O15379); assay: human recombinant HDAC inhibition assay; format: biochemical; conditions: read-out: Ki value HDAC3
[6] = target: T2, HDAC6 (Homo sapiens, UniProt Q9UBN7); assay: human recombinant HDAC inhibition assay and Lineweaver-Burk plots; format: biochemical
T2 sequence (Q9UBN7 1-1215): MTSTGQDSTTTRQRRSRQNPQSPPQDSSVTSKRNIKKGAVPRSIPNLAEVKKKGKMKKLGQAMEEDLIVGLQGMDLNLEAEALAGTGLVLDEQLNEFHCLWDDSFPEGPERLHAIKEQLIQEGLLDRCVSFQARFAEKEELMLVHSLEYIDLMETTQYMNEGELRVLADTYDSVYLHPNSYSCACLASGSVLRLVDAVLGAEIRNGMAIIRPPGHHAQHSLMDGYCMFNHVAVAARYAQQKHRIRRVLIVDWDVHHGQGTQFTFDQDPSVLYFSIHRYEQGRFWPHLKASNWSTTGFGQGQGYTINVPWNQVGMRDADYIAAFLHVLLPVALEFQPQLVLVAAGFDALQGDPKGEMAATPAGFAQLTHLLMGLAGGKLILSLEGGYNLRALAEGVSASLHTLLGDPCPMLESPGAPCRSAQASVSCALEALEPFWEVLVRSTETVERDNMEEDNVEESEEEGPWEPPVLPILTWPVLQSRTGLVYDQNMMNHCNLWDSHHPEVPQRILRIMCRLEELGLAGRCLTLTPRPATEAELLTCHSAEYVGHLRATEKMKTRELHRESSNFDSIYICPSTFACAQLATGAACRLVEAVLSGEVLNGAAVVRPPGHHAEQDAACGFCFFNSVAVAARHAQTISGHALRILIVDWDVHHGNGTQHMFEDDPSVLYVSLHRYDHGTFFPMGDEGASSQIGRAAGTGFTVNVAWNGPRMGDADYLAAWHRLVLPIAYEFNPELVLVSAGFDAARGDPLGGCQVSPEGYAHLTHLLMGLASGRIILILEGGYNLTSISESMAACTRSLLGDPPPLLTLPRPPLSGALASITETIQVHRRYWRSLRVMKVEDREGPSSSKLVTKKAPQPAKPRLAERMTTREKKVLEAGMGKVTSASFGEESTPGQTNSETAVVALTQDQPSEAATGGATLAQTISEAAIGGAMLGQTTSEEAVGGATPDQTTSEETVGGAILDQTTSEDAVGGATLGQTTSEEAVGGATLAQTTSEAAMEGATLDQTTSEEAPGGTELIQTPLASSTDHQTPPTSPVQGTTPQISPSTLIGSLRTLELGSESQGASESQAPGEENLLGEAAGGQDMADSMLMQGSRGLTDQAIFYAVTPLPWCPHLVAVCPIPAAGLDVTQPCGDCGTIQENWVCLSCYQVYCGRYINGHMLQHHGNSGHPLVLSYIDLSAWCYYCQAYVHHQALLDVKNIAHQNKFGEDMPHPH

[7] = target: HDAC1 (Homo sapiens, UniProt Q13547); assay: human recombinant HDAC inhibition assay; format: biochemical; conditions: N.I. = no inhibition
[8] = system: type I and II HDACs; assay: recombinant HDAC inhibition, summary over isoenzymes; format: biochemical, human
[9] = target: HDAC2 (Homo sapiens, UniProt Q92769); assay: human recombinant HDAC inhibition assay and Lineweaver-Burk plots; format: biochemical
[10] = system: RAW264.7 macrophages; assay: Viability assay; format: cell-based, murine; conditions: C646 concentrations above 30 μM, 20 hrs
[11] = target: T3, lysine acetyltransferase 8 (KAT8) (Homo sapiens, UniProt Q9H7Z6); assay: KAT8 activity assay; format: biochemical; conditions: N.I. = no inhibition
T3 sequence (Q9H7Z6 1-458): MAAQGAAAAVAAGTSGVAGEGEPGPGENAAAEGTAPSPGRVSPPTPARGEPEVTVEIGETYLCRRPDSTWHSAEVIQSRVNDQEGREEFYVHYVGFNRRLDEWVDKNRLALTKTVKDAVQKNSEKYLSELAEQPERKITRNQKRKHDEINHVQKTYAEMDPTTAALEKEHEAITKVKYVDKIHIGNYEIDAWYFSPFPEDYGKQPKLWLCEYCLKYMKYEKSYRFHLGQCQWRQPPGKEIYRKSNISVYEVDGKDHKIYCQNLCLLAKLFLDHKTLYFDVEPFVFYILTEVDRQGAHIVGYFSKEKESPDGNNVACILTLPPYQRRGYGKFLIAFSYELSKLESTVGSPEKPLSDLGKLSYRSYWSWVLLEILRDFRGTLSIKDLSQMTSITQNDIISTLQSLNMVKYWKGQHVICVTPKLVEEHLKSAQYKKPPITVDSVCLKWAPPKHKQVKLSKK

[12] = system: RAW264.7 murine macrophages; assay: Gene expression analysis in RAW264.7 by RT-q-PCR after LPS and IFNγ stimulus; format: cell-based
[13] = system: α-tubulin acetylation in RAW264.7 cells; assay: α-tubulin acetylation immunoblot; format: cell-based, murine
[14] = system: NF-κB promoter activity in RAW-Blue macrophages; assay: RAW-Blue NF-κB reporter gene assay; format: cell-based, murine; conditions: 16 hrs pre-treatment + 4 hrs stimulus
[15] = C646 at 15, 20, 25 or 30 μM for 6 hrs
[16] = Boc-Lys-(Ac)-AMC as substrate, Lineweaver-Burk plot
[17] = RAW264.7, C646 at 30 μM, downregulation

Sequence of HDAC2 (Q92769 whole entry): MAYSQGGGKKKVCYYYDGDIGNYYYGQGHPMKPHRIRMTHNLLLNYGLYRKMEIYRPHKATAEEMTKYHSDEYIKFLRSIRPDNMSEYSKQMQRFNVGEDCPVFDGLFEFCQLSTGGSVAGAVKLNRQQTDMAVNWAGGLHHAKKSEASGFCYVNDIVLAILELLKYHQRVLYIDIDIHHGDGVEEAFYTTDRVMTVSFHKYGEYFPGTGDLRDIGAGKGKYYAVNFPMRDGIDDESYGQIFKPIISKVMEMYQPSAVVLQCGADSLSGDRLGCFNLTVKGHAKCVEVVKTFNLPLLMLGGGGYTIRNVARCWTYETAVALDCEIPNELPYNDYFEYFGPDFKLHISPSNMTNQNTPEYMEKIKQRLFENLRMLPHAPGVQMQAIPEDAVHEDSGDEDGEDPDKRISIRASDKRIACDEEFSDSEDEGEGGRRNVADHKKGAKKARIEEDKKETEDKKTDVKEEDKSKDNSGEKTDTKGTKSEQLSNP
Sequence of HDAC1 (Q13547 whole entry): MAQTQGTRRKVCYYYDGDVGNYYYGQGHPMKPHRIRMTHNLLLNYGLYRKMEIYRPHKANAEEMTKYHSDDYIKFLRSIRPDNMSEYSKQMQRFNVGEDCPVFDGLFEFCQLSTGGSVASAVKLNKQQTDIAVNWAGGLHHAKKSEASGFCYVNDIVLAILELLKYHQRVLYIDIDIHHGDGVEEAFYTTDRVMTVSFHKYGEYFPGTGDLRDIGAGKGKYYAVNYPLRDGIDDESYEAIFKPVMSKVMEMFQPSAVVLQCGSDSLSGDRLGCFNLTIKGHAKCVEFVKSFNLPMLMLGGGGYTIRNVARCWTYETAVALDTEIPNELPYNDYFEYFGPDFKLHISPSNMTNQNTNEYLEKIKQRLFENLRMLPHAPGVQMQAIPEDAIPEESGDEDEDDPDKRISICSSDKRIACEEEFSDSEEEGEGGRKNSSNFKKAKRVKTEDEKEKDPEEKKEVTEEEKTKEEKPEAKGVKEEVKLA
Sequence of HDAC3 (O15379 whole entry): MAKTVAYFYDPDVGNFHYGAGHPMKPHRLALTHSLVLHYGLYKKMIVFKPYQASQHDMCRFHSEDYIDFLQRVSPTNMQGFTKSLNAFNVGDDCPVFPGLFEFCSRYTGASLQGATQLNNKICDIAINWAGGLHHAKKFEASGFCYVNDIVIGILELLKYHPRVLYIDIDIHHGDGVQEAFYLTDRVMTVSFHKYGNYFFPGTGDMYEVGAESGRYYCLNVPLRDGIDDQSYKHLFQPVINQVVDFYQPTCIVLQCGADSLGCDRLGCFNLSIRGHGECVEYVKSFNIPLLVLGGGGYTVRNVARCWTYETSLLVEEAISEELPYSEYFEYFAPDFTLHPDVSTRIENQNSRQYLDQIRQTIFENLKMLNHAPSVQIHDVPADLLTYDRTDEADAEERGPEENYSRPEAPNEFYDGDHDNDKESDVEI
Sequence of HDAC3 (Q9Y618 395-489 partner limits assumed): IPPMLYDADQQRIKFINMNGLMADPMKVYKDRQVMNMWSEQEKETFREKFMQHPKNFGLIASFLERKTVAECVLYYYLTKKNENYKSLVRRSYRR

CC1=NN(c2ccc(C(=O)O)cc2)C(=O)/C1=C\c1ccc(-c2cc(C)c(C)cc2[N+](=O)[O-])o1 [C646]
percentage of change in IL-1β gene expression compared to vehicle ([1]; C646 at 25 μM, downregulation): 72.3%
percentage of change in IL-12b gene expression compared to vehicle ([1]; C646 at 25 μM, downregulation): 85.0%
percentage of change in TNFα gene expression compared to vehicle ([1]; C646 at 25 μM, downregulation): 79.1%
percentage of change in iNOS gene expression compared to vehicle ([1]; C646 at 25 μM, downregulation): 58.4%
viability of PCLS [2]: decreased viability
Ki [3]: 11 ± 1 µM
acetylation status of histone H3 res. 18-26 (H3 K18 and H3 K23) ([4]; C646 30 μM for 6 hrs): small yet significant increase
acetylation status of histone H4 res. 4-17 [4, 15]: No significant changes
acetylation status of other histone H4 peptides [4, 15]: no changes in acetylation status
histone acetylation (H3 res. 18-26, H4 res. 4-17) ([4]; C646 at 15, 20, 25 or 30 μM for 20 hrs, no inflammatory stimulus): No changes in histone acetylation
acetylation status of histone H3 res. 18-26 (H3 K18 and H3 K23) ([4]; C646 at concentrations lower than 30 μM for 6 hrs): not significant
Ki [5]: 25 ± 5 µM
kinetics of inhibition of HDAC6 [6, 16]: non-competitive inhibition
Ki ([6]; read-out: Ki value HDAC6): 7 ± 1 µM
Ki value HDAC1 [7]: N.I.
concentration from which histone deacetylases are inhibited [8]: ≥ 7 µM
kinetics of inhibition of HDAC2 [9, 16]: non-competitive inhibition
Ki ([9]; read-out: Ki value HDAC2): 15 ± 1 µM
viability of the macrophages [10]: decreased viability
Ki value KAT8 [11]: N.I.
percentage of change in IL-12b gene expression compared to vehicle [12, 17]: 54.2%
percentage of change in TNFα gene expression compared to vehicle [12, 17]: 54.1%
α-tubulin acetylation ([13]; C646 15 μM for 6 hrs): but not at 15 μM
α-tubulin acetylation ([13]; C646 30 μM for 6 hrs): pronounced inhibition
α-tubulin acetylation ([13]; C646 30 μM for 20 hrs): inhibition of α-tubulin acetylation was also observed
LPS and IFNγ induced NF-κB promoter activity ([14]; C646 at 15 μM or higher (up to 30 μM)): significant inhibition

O=C(CCCCCCC(=O)Nc1ccccc1)NO [SAHA, suberanilohydroxamic acid]
percentage of change in iNOS gene expression compared to vehicle ([1]; SAHA at 0.41 μM, downregulation): 39.9%
percentage of change in IL-1β gene expression compared to vehicle ([1]; SAHA at 0.41 μM, upregulation): 41.5%
percentage of change in IL-6 gene expression compared to vehicle ([1]; SAHA at 0.41 μM, upregulation): 58.8%
acetylation of histone-derived peptides H4 4-17 and H3 18-26 ([4]; SAHA 0.41 µM for 20 hrs): increased acetylation
percentage of change in IL-1β gene expression compared to vehicle ([12]; RAW264.7, SAHA at 0.41 μM, upregulation): 317%
α-tubulin acetylation ([13]; SAHA, data not shown): upregulated
LPS and IFNγ induced NF-κB promoter activity ([14]; SAHA 0.41 μM): further enhanced
